Test results from the NIST ThermoML archive (doi:10.1016/j.fluid.2017.09.010).
Numbers after ± are expanded uncertainties. One block for each compound: values may come before it.

Details: Liquid, Ebulliometric method (Recirculating still)

- vapor or sublimation pressure (373 K): 101 ± 5 kPa
SMILES: O [water]

- vapor or sublimation pressure (361.8 K): 101 ± 1 kPa
SMILES: CC(=O)OC(C)C [1-methylethyl ethanoate]

- vapor or sublimation pressure (355.4 K): 101 ± 1 kPa
SMILES: CC(C)O [propan-2-ol]

- vapor or sublimation pressure (374.2 K): 101 ± 1 kPa
SMILES: CCCOC(C)=O [propyl ethanoate]
